Results from publication PMC7005646, “Overcoming resistance to anabolic SARM therapy in experimental cancer cachexia with an HDAC inhibitor” (EMBO Molecular Medicine, 2020).

Legend:
[1] = tested on: C‐26 tumor‐bearing mice; assay: AR‐42 dose–response study in the C‐26 cachexia model; assay type: in vivo, mouse
Description: These studies were performed as previously described (Tseng et al, 2015a) with modifications. Tumors were established in the right flank of CD2F1 mice by subcutaneous injection of C‐26 cells (0.5 × 10^6 cells in 0.1 ml). […] TFM‐4AS‐1 (a potent experimental SARM), DHT, and vehicles were administered by subcutaneous injection.
Therefore the efficacy and associated exposures of reduced doses of AR‐42 were determined. Male CD2F1 mice were stratified by body weight and then randomly assigned into five groups of six animals each. C‐26 tumors were established in four of the groups, while those in the fifth group, serving as tumor‐free controls, were injected with sterile saline. Six days later, animals with palpable tumors were treated with AR‐42 once daily at 10 (n = 5) and 20 mg/kg (n = 6), and every other day at 50 mg/kg (n = 5, the originally described anti‐cachectic dose; Tseng et al, 2015a), or vehicle control (n = 4) for 13 days. Upon sacrifice on study day 18, when the majority of tumor‐bearing control mice met euthanasia criteria, the left gastrocnemius muscle was excised, flash‐frozen in liquid nitrogen, and stored at −80°C for subsequent analyses. Carcass weights were corrected for tumor weight by assuming a tumor density equivalent to water (1 g/cm^3). […] This study was performed as described above with animals treated with AR‐42 once daily at 1, 3, and 10 mg/kg or with vehicle control (n = 8).

[2] = tested on: atrogin‐1, MuRF‐1, CEBPδ expression; assay: qRT–PCR of atrophy‐related genes in gastrocnemius, Study 1; assay type: in vivo, mouse; conditions: GTx‐024 15 mg/kg, AR‐42 10 mg/kg, or both
Description: To generate muscle tissue RNA, 15 mg of gastrocnemius muscle tissue was lysed in 10 volumes of lysis buffer per tissue mass in prefilled 2.0‐ml tubes with 3.0 mm zirconium beads (MIDSCI; St. Louis, MO). Tubes were loaded into BeadBlaster™ 24 (MIDSCI; St. Louis, MO) and […] for five cycles of 5 s with a 30‐s pause between cycles. Lysate was collected, and RNA was isolated using the mirVana™ miRNA Isolation Kit, with phenol (Thermo Fisher; Waltham, MA). Samples were treated with DNA‐free DNA Removal Kit to eliminate any DNA contamination (Invitrogen, Carlsbad, CA). Total RNA (0.5 μg) was reverse‐transcribed using high‐capacity cDNA reverse transcription kit (Applied Biosystems, Foster City, CA) for 10 min at 25°C, 120 min at 37°C, and 5 min at 85°C (T100™ Thermal Cycler, Bio‐Rad). Real‐time qPCR was performed on the QuantStudio 7 system (Applied Biosystems, Foster City, CA) using the powerup SYBR Green Master Mix (Applied Biosystems, Foster City, CA). Cycling was performed using the QuantStudio 7 real‐time PCR software—2 min at 50°C and 10 min at 95°C—followed by 40 cycles of 15 s at 95°C and 1 min at 60°C. […] As transformed expression data are not normally distributed, statistical differences between treatment groups were determined by one‐way ANOVA followed by Dunnett's test on raw delta C t values.

[3] = set-up: method as in Sborov et al, 2017; conditions: patients; ref Sborov et al, 2017; cited from earlier work
[4] = tested on: LLC tumor‐bearing mice; assay: AR‐42/GTx‐024 combination study in the LLC cachexia model (Study 5); assay type: in vivo, mouse; conditions: repeat of Study 5; 10 mg/kg AR‐42, 0.5 mg/kg GTx‐024, or both
Description: This study was performed as previously described (Tseng et al, 2015a) with modifications. Tumors were established in the right hindlimb of male C57BL/6NHsd mice by intramuscular injection of LLC cells (0.5 × 10^6 cells in 0.05 ml). Similar to Study 3, the tumor‐free control group was maintained at six animals, whereas 12 animals were included in each of the tumor‐bearing groups. […] Grip strength, body weight, and food consumption were measured, and tissues were collected as in the previous C‐26 studies.

[5] = tested on: IIb HDACs; assay: In vitro HDAC inhibition assay, class IIb isoforms; assay type: biochemical, human; conditions: 1 μM AR‐42; range over isoforms
Description: HDAC activity was measured by a commercial vendor using human recombinant HDAC enzymes and fluorogenic HDAC substrates (Eurofins Cerep SA, Celle L'Evescault, France). Substrate concentrations ranged from 20 to 400 μM, and incubation conditions ranged from 10 to 90 min (RT or 37°C), depending on isoform. Results are expressed as percent inhibition of control specific activity in the presence of 1 μM AR‐42.

[6] = tested on: pSTAT3 in C‐26 tumors; assay: Phospho‐STAT3/STAT3 ELISA in C‐26 tumor tissues, Study 2; assay type: in vivo, mouse; conditions: Study 2, 10 mg/kg
Description: Expression of phospho‐STAT3 and total STAT3 in C‐26 tumor tissues was measured using commercial sandwich ELISA kits according to the manufacturer's instructions (PathScan® Phospho‐Stat3, #7300, and Total Stat3, #7305, Cell Signaling Technology, Danvers, MA).

SMILES: CC(C)[C@H](C(=O)Nc1ccc(C(=O)NO)cc1)c1ccccc1 [AR‐42]
- minimally efficacious dose (anti‐cachectic) ([1]; daily oral, 13 days, C‐26 model): 10 mg/kg
- effect on C‐26 tumor‐mediated reductions in tumor‐corrected body weight and gastrocnemius mass ([1]; lower doses (1, 3 mg/kg daily)): not effective
- effect on C‐26 tumor‐mediated reductions in tumor‐corrected body weight and gastrocnemius mass ([1]; thirteen daily oral doses of 20 or 10 mg/kg): ameliorated
- atrogin‐1, MuRF‐1, CEBPδ expression in gastrocnemius relative to tumor‐bearing controls [2]: significantly reduced
- well‐tolerated plasma exposure in humans [3]: 8.5 µM·h
- response of body weight and skeletal muscle mass loss [4]: did not respond
- inhibition of class IIb HDACs [5]: 86–100%
- pSTAT3 signaling within the C‐26 tumors [6]: did not significantly suppress
